Laboratory results: US8394799B2, “Compounds that inhibit HIF-1 activity, the method for preparation thereof and the pharmaceutical composition containing them as an effective component” (Korea Research Institute of Bioscience and Biotechnology, priority 2006, dated 2013)

Experiments:
Format in all cases: cell-based
HIF-1 [1] = test: Assay of IC50, SK-Hep-1 cells (same manner); conditions: Homo sapiens, SK-HEP1; SK-Hep-1 cell line, compounds 0.01 to 100 μM for 16 hrs
From the text: (§1) Six tandem repeats of HRE (hypoxia Responsive Element 5′-ACGTG-3′), which is present in a human VEGF gene, was inserted into the multi-cloning region of a pGL3-basic vector (Promega) containing a luciferase gene as a reporter gene to produce a recombinant pGL3-HRE-luciferase vector which was then used to assay the compounds prepared in the above Examples for inhibition activity against HIF-mediated transcriptional activity.

HIF-1 [2] = test: Assay of IC50, Hep3B cells (HRE-luciferase transfected); conditions: Homo sapiens
From the text: as §1

HIF-1 [3] = test: Assay of IC50, AGS cells (HRE-luciferase transfected); conditions: Homo sapiens
From the text: as §1

**Q.** For `O=C(COc1ccc(C23CC4CC(CC(C4)C2)C3)cc1)Nc1cc(C(=O)NCCc2ccncc2)ccn1` [Example 106, 2-[2-(4-adamantan-1-yl-phenoxy)-acetylamino]-N-(2-pyridine-4-yl-ethyl)-isonicotinamide], which IC50 (HIF-1 [1]) is on record?
**A.** 3400 nM

**Q.** Which IC50 (HIF-1 [2]) does the source give for `O=C(COc1ccc(I)cc1)Nc1cccc(C(=O)O)c1` [Example 58, 3-[2-(4-iodo-phenoxy)-acetylamino]-benzoic acid] here?
**A.** 7.2 µM

**Q.** And the IC50 (HIF-1 [3])?
**A.** 3.5 µM

**Q.** `COC(=O)c1cncc(NC(=O)COc2ccc(C34CC5CC(CC(C5)C3)C4)cc2)c1` [Example 87, 5-[2-(4-adamantan-1-yl-phenoxy)acetylamino]-nicotinic acid methyl ester] was tested. Which IC50 (HIF-1 [1]) did it give?
**A.** > 30000 nM

**Q.** And the IC50 (HIF-1 [2])?
**A.** 5.9 µM

**Q.** And the IC50 (HIF-1 [3])?
**A.** 5 µM

**Q.** What does the source list for `O=C(COc1ccc(C23CC4CC(CC(C4)C2)C3)cc1)Nc1cccc(C(=O)NCc2ccco2)c1` [Example 73]?
**A.** IC50 (HIF-1 [2]): 14.1 µM; IC50 (HIF-1 [3]): 2 µM

**Q.** How did the IC50 (HIF-1 [2]) turn out when `O=C(COc1ccc(C23CC4CC(CC(C4)C2)C3)cc1)Nc1cccc(C(=O)Nc2ccc(Cl)cc2)c1` [Example 70, 3-[2-(4-adamantan-1-ylphenoxy)-acetylamino]-N-(4-chloro-phenyl)-benzamide] was run?
**A.** > 30 µM

**Q.** And the IC50 (HIF-1 [3])?
**A.** 9.5 µM

**Q.** Which results are given for `NC(=O)c1ccc(O)c(NC(=O)COc2ccc(C34CC5CC(CC(C5)C3)C4)cc2)c1` [Example 65, 3-[2-(4-adamantan-1-yl-phenoxy)-acetylamino]-4-hydroxy-benzamide]?
**A.** IC50 (HIF-1 [2]): > 30 µM; IC50 (HIF-1 [3]): 1.5 µM

**Q.** How did the IC50 (HIF-1 [2]) turn out when `O=C(COc1ccc(Cl)cc1Cl)Nc1cccc(C(=O)NCc2ccco2)c1` [Example 77, 3-[2-(2,4-dichloro-phenoxy)-acetylamino]-N-furan-2-ylmethyl-benzamide] was run?
**A.** > 30 µM

**Q.** And the IC50 (HIF-1 [3])?
**A.** 35 µM

**Q.** Which IC50 (HIF-1 [2]) does the source give for `CN(C)CCNC(=O)c1ccc(O)c(NC(=O)COc2ccc(C34CC5CC(CC(C5)C3)C4)cc2)c1` [Example 68, 3-[2-(4-adamantan-1-yl-phenoxy)-acetylamino]-N-(2-dimethylamino-ethyl)-4-hydroxy-benzamide] here?
**A.** 51.7 µM

**Q.** And the IC50 (HIF-1 [3])?
**A.** 3 µM

**Q.** How did the IC50 (HIF-1 [2]) turn out when `O=C(COc1ccc(C23CC4CC(CC(C4)C2)C3)cc1)Nc1cc(C(=O)NCc2ccco2)ccc1O` [Example 67, 3-[2-(4-adamantan-1-yl-phenoxy)-acetylamino]-N-furan-2-ylmethyl-4-hydroxy-benzamide] was run?
**A.** 12.6 µM

**Q.** And the IC50 (HIF-1 [3])?
**A.** 5.9 µM

**Q.** `NC(=O)c1cncc(NC(=O)COc2ccc(C34CC5CC(CC(C5)C3)C4)cc2)c1` [Example 112, 5-[2-(4-adamantan-1-yl-phenoxy)acetylamino]-nicotinamide] was tested. Which IC50 (HIF-1 [1]) did it give?
**A.** 11900 nM

**Q.** How did the IC50 (HIF-1 [1]) turn out when `O=C(COc1ccc(C23CC4CC(CC(C4)C2)C3)cc1)Nc1cncc(C(=O)NCCCn2ccnc2)c1` [Example 103, 5-[2-(4-adamantan-1-yl-phenoxy)-acetylamino]-N-(3-imidazole-1-yl-propyl)nicotinamide] was run?
**A.** 1900 nM

**Q.** `CC(=O)c1ccc(OCC(=O)Nc2cccc(C(=O)O)c2)cc1` [Example 60, 3-[2-(4-acetyl-phenoxy)-acetylamino]-benzoic acid] was tested. Which IC50 (HIF-1 [2]) did it give?
**A.** > 30 µM

**Q.** And the IC50 (HIF-1 [3])?
**A.** > 30 µM

**Q.** `O=C(COc1ccc(C23CC4CC(CC(C4)C2)C3)cc1)Nc1cc(C(=O)Nc2ccc(Cl)cc2)ccn1` [Example 104, 2-[2-(4-adamantan-1-yl-phenoxy)-acetylamino]-N-(4-chloro-phenyl)-isonicotinamide] was tested. Which IC50 (HIF-1 [1]) did it give?
**A.** 2500 nM

**Q.** For `NC(=O)c1cccc(NC(=O)COc2ccc([N+](=O)[O-])cc2)c1` [Example 32, 3-[2-(4-nitro-phenoxy)-acetyl-amino)benzamide], which IC50 (HIF-1 [2]) is on record?
**A.** > 30 µM

**Q.** And the IC50 (HIF-1 [3])?
**A.** > 30 µM

**Q.** `O=C(COc1ccc(Cl)cc1Cl)Nc1cc(C(=O)NCc2ccco2)ccc1O` [Example 78, 3-[2-(2,4-dichloro-phenoxy)-acetylamino]-N-fan-2-ylmethyl-4-hydroxy-benzamide] was tested. Which IC50 (HIF-1 [2]) did it give?
**A.** 23.2 µM

**Q.** And the IC50 (HIF-1 [3])?
**A.** > 30 µM

**Q.** Which results are given for `O=C(COc1ccc(Cl)cc1)Nc1cccc(C(=O)O)c1` [Example 52, 3-[2-(4-chloro-phenoxy)-acetylamino]-benzoic acid]?
**A.** IC50 (HIF-1 [2]): > 30 µM; IC50 (HIF-1 [3]): 10 µM

**Q.** For `O=C(COc1ccc(C23CC4CC(CC(C4)C2)C3)cc1)Nc1cc(C(=O)NCCCn2ccnc2)ccn1` [Example 107, 2-[2-(4-adamantan-1-yl-phenoxy)-acetylamino]-N-(3-imidazole-1-yl-propyl)-isonicotinamide], which IC50 (HIF-1 [1]) is on record?
**A.** < 1000 nM

**Q.** What does the source list for `Cc1ccc(OCC(=O)Nc2cccc(C(N)=O)c2)cc1` [Example 31, 3-(2-p-tolyloxy-acetyl-amino)-benzamide]?
**A.** IC50 (HIF-1 [2]): > 30 µM; IC50 (HIF-1 [3]): > 30 µM

**Q.** How did the IC50 (HIF-1 [2]) turn out when `CC(C)(C)c1ccc(OCC(=O)Nc2cccc(C(N)=O)c2)cc1` [Example 30, 3-[2-(4-tert-butyl-phenoxy)-acetyl-amino]-benzamide] was run?
**A.** > 30 µM

**Q.** And the IC50 (HIF-1 [3])?
**A.** > 30 µM

**Q.** Which IC50 (HIF-1 [1]) does the source give for `COC(=O)c1ccnc(NC(=O)COc2ccc(C34CC5CC(CC(C5)C3)C4)cc2)c1` [Example 86, 2-[2-(4-adamantan-1-yl-phenoxy)acetylamino]-isonicotinic acid methyl ester] here?
**A.** 1030 nM

**Q.** What about the IC50 (HIF-1 [2]) of the same compound?
**A.** 1.2 µM

**Q.** And the IC50 (HIF-1 [3])?
**A.** 2 µM

**Q.** `COC(=O)c1cccc(NC(=O)COc2ccc(C34CC5CC(CC(C5)C3)C4)cc2)c1` [Example 2, 3-[2-(4-Adaman-1-yl-phenoxy)-acetylamino]-benzoic acid methyl ester] was tested. Which IC50 (HIF-1 [2]) did it give?
**A.** 9.9 µM

**Q.** What about the IC50 (HIF-1 [3]) of the same compound?
**A.** 7.4 µM

**Q.** How did the IC50 (HIF-1 [2]) turn out when `O=C(COc1ccc(C23CC4CC(CC(C4)C2)C3)cc1)Nc1cc(C(=O)NCCCN2CCOCC2)ccc1O` [Example 69] was run?
**A.** > 30 µM

**Q.** What about the IC50 (HIF-1 [3]) of the same compound?
**A.** > 30 µM

**Q.** For `O=C(COc1ccc(C23CC4CC(CC(C4)C2)C3)cc1)Nc1cccc(C(=O)Nc2ccc3ccccc3c2)c1` [Example 72, 3-[2-(4-adamantan-1-yl-phenoxy)-acetylamino]-N-naphtalene-2-yl-benzamide], which IC50 (HIF-1 [2]) is on record?
**A.** > 30 µM

**Q.** And the IC50 (HIF-1 [3])?
**A.** > 30 µM

**Q.** How did the IC50 (HIF-1 [2]) turn out when `O=C(COc1ccc(C23CC4CC(CC(C4)C2)C3)cc1)Nc1cccc(C(=O)NCCc2ccncc2)c1` [Example 74] was run?
**A.** 8.2 µM

**Q.** What about the IC50 (HIF-1 [3]) of the same compound?
**A.** 3.1 µM

**Q.** Which results are given for `O=C(COc1ccc(Br)cc1)Nc1cccc(C(=O)O)c1` [Example 57, 3-[2-(4-bromo-phenoxy)-acetylamino]-benzoic acid]?
**A.** IC50 (HIF-1 [2]): > 30 µM; IC50 (HIF-1 [3]): 1.6 µM

**Q.** How did the IC50 (HIF-1 [1]) turn out when `O=C(COc1ccc(C23CC4CC(CC(C4)C2)C3)cc1)Nc1cc(C(=O)O)ccn1` [Example 98, 2-[2-(4-adamantan-1-yl-phenoxy)acetylamino]-isonicotinic acid] was run?
**A.** 2000 nM

**Q.** And the IC50 (HIF-1 [2])?
**A.** 1.03 µM

**Q.** How did the IC50 (HIF-1 [1]) turn out when `O=C(COc1ccc(C23CC4CC(CC(C4)C2)C3)cc1)Nc1cc(C(=O)NCc2ccco2)ccn1` [Example 105, 2-[2-(4-adamantan-1-yl-phenoxy)-acetylamino]-N-furan-2-ylmethyl-isonicotinamide] was run?
**A.** > 30000 nM

**Q.** For `O=C(COc1ccc(C23CC4CC(CC(C4)C2)C3)cc1)Nc1cncc(C(=O)NCCc2ccncc2)c1` [Example 102, 5-[2-(4-adamantan-1-yl-phenoxy)acetylamino]-N-(2-pyridine-4-yl-ethyl)nicotinamide], which IC50 (HIF-1 [1]) is on record?
**A.** > 30000 nM

**Q.** What does the source list for `CN(C)C(=O)c1ccc(O)c(NC(=O)COc2ccc(C34CC5CC(CC(C5)C3)C4)cc2)c1` [Example 66, 3-[2-(4-adamantan-1-yl-phenoxy)-acetylamino]-4-hydroxy-N,N-dimethyl-benzamide]?
**A.** IC50 (HIF-1 [2]): > 30 µM; IC50 (HIF-1 [3]): > 30 µM

**Q.** Which IC50 (HIF-1 [2]) does the source give for `O=C(COc1ccc(F)cc1)Nc1cccc(C(=O)O)c1` [Example 51, 3-[2-(4-fluoro-phenoxy)acetylamino]-benzoic acid] here?
**A.** > 30 µM

**Q.** And the IC50 (HIF-1 [3])?
**A.** > 30 µM
